Literature values, collected in patent US7160060B1, “System and method of remediation of contaminants” (priority 2004, dated 2007).
Where two headings read alike, the source gives them in different places.

[1] = select polycyclic aromatic hydrocarbons (Table 3)
[2] = select chlorinated organics (Table 1)

SMILES | SOLUBILITY IN WATER at 25° C. [1] | SOLUBILITY IN WATER at 25° C. [2] | other results
c1ccc2cc3ccccc3cc2c1 [Anthracene] | 0.075 mg/L |  | 
c1ccc2c(c1)cc1ccc3cccc4ccc2c1c34 [Benzo(a)pyrene] | 0.0016 mg/L |  | 
c1cc2ccc3ccc4ccc5cccc6c(c1)c2c3c4c56 [Benzo(g,h,i)perylene] | 0.00026 mg/L |  | 
c1ccc2c(c1)ccc1c3ccccc3ccc21 [Chrysene] | 0.00189 mg/L |  | 
c1ccc2c(c1)ccc1cc3c(ccc4ccccc43)cc12 [Dibenz(a,h)anthracene] | 0.0006 mg/L |  | 
ClC(Cl)=C(Cl)Cl [Perchloroethylene] |  | 150 mg/L | 
c1ccc2c(c1)ccc1ccccc12 [Phenanthrene] | 1.18 mg/L |  | 
ClC=C(Cl)Cl [Trichloroethylene] |  | 1,280 mg/L | 
C=CCl [Vinyl Chloride] |  | 8,800 mg/L | 
Cc1ccc(C)cc1 [p-xylene isomer, p-xylene] |  |  | SOLUBILITY IN WATER at 25° C. (select volatile organic chemicals (BTEX) (Table 2)): 198 mg/L
